One data set deals with JEV. Description: IFA of JEV infection with calcium inhibitors on Vero and Huh-7 cells. The data set is classed as cell-based, Japanese encephalitis virus.
Data set [1] in a line: Cytotoxicity (CC50) of compounds from the reconfirmation screen. The class given is cell-based. The note with it: African green monkey, Vero cells; 50% cytotoxic concentration.
Data set [2] concerns JEV RVP. Description: microbe, parasite or virus in culture. The note with it: Japanese encephalitis virus, Vero; for IC50: 24 h; for inhibition at 10 µM: read-out: level of inhibition in the primary screen.
Data set [3] concerns JEV RVP. The experiment in a line: in vitro. Particulars: African green monkey, SI (selective index, CC50/IC50), Vero cells.
The test system of another data set is ZIKV. Description: ZIKV infection of Vero cells (viral titer, RNA, IFA). The data set is classed as cell-based, Zika virus. The note with it: 48 h; for ZIKV plaque formation: 10 μM, Vero cells.
In data set [4] the test system is JEV strain AT31. The note with it: mouse, in vivo.
A further data set relates to YFV. The data set is classed as cell-based, yellow fever virus.
The test system of data set [5] is JEV NS4B Q130 mutant viruses. The data set is classed as cell-based, Japanese encephalitis virus.
The subject of data set [6] is JEV strain AT31. The experiment in a line: qRT-PCR quantification of JEV RNA in cell lysates. The note with it: high-, middle- and low-dose groups, 24 h. In general terms: Real-time PCR tracks product formation cycle by cycle.
The subject of a further data set is DENV-2 replicon. The experiment in a line: DENV-2 replicon luciferase assay in BHK-21 cells. The data set is classed as cell-based, dengue virus type 2. The note with it: 72 h. On the procedure:
FIG 4 Broad-spectrum antiviral activity of the hit drugs against flaviviruses. […] The hit drugs were added to the cells at 1 h preinfection and were present throughout the experiment. At 48 h postinfection, the cell culture supernatants were subjected to a viral titer assay (top left), while cell lysates were assessed for viral RNA quantification (top right), and duplicate cells were analyzed by IFA for E protein (green) expression (bottom). Nuclei (blue) were stained with DAPI (4′,6-diamidino-2-phenylindole). (B and C) BHK-21 cells transfected with the WNV or DENV-2 replicon were treated with the hit drugs at the indicated concentrations, and luciferase activities were determined 48 h or 72 h later.
To ensure the effectiveness of the hit drugs in flavivirus replication, BHK-21 cells transfected with the JEV, WNV, or DENV-2 replicon were incubated with each drug at the concentrations indicated above, and the luciferase activities were determined 24 h, 48 h, or 72 h later, respectively.
(A replicon is a self-replicating genome or part of one, used to study replication in cells.)

Data set [7] concerns JEV RVP. Particulars: Vero cells.

Counter-ions that a name gives are not always drawn. Where only a bound is given, the exact number is not on record here.

This is an account of results in publication PMC5640845, “Screening of FDA-Approved Drugs for Inhibitors of Japanese Encephalitis Virus Infection” (Journal of Virology, 2017).

With `CC(=O)OCOC(=O)CN(CC(=O)OCOC(C)=O)c1ccccc1OCCOc1ccccc1N(CC(=O)OCOC(C)=O)CC(=O)OCOC(C)=O` [BAPTA-AM, 1,2-bis-(o-aminophenoxy)-ethane-N,N,N′,N′-tetraacetic acid, tetraacetoxymethyl ester], in the data set on JEV, the “inhibition of JEV infection (IFA, prM-positive cells vs DMSO control)” value is “suppress JEV infection”.
The term CC50 denotes the concentration giving 50% cytotoxicity. Lower therefore signals greater toxicity to the cells. By IC50 is commonly meant the concentration that gives 50% inhibition. Low values mean higher potency, high ones lower potency. In data set [1], `COC(=O)C1=C(C)NC(C)=C(C(=O)OC2CCCN(Cc3ccccc3)C2)C1c1cccc([N+](=O)[O-])c1` (stereo not drawn) [Benidipine hydrochloride] registered a CC50 of 55.9 µM. It took 3.7 µM to reach half-maximal inhibition in the data set with JEV RVP [2] (IC50). In addition, in the data set on JEV RVP [3], the selectivity ratio worked out at 15.
In data set [1], `Clc1ccc(CCC(Cn2ccnc2)Sc2c(Cl)cccc2Cl)cc1` (stereo not drawn) [Butoconazole Nitrate] displayed a CC50 of 15.7 µM. In the data set on JEV RVP [2], this compound came in with an IC50 of 4 µM. Moreover, in the data set on JEV RVP [3], the selectivity ratio came out at 4.
As to `COCCOC(=O)C1=C(C)NC(C)=C(C(=O)OC/C=C/c2ccccc2)C1c1cccc([N+](=O)[O-])c1` (stereo not drawn) [Cilnidipine], in data set [1], the CC50 is more than 100 µM. Besides, half-maximal inhibition in the data set on JEV RVP [2] (IC50) required 3.5 µM. Further, the selectivity ratio in the data set with JEV RVP [3] was more than 28.6. Moreover, in the data set with ZIKV, the ZIKV plaque formation result is given as “no plaque formation”.
`CCOC(=O)C1=C(C)NC(C)=C(C(=O)OCC)C1c1ccccc1/C=C/C(=O)OC(C)(C)C` [Lacidipine]: half-maximal cytotoxicity in data set [1] (CC50) was put at 14.1 µM. The midpoint of inhibition in the data set on JEV RVP [2], the IC50, lay at 3.5 µM. In addition, the selectivity ratio in the data set with JEV RVP [3] worked out at 4.
By inhibition is commonly meant the percentage by which the read-out fell short of the control. In the case of `COC(=O)C1=C(C)NC(C)=C(C(=O)OCCN2CCN(C(c3ccccc3)c3ccccc3)CC2)C1c1cccc([N+](=O)[O-])c1` (stereo not drawn) [Manidipine], in the data set on JEV strain AT31 [4], the “effect on peripheral JEV infection (serum and spleen viral loads)” value is on record as “little effect”; the “histopathological changes in brain (meningitis, perivascular cuffing, vacuolar degeneration, glial nodules)” value was “remarkably alleviated”. Moreover, in the data set on JEV strain AT31 [4] (ip, 25 mg/kg), the “abnormal behavior of treated mice” value is listed as “little abnormal behavior”, the animals survived was 12 out of 15 and the mortality rate is 20%. Also, in data set [1], the CC50 is more than 100 µM. Also, in the data set with JEV RVP [2], half-maximal inhibition (IC50) required 1.6 µM. The “sensitivity of YFV to the drug” value in the data set with YFV was “resistance”. In data set [5], the “decrease of viral titer, Q130A mutant JEV” value is listed as “higher than 2 log-unit”; the “decrease of viral titer, Q130K mutant JEV” value is recorded as “less than 2 log units”; the “decrease of viral titer, Q130R mutant JEV” value is on record as “less than 2 log units”; the “reduction of viral yields, WT JEV” value is reported as “approximately 4 log units”. Also, in data set [5], the “resistance of Q130E mutant JEV to the drug” value is recorded as “no resistance”. Further, the selectivity ratio in the data set with JEV RVP [3] was more than 62.5. In addition, the “attenuation of JEV RNA levels (inhibitory effect vs control)” value in the data set on JEV strain AT31 [6] was “at least 80%”. For the same compound, in the data set on ZIKV, the ZIKV plaque formation entry was “no plaque formation”. Moreover, the inhibition at 5 µM in the data set on ZIKV (Zika virus, Vero, read-out: inhibition of ZIKV viral replication, translation, and viral yields) was determined as 95%.
As for `Clc1ccc(C(c2ccccc2Cl)C(Cl)Cl)cc1` (stereo not drawn) [Mitotane], in [1], the CC50 amounted to 25.9 µM. The compound further gave an IC50 in the data set on JEV RVP [2] of 6.6 µM. The selectivity ratio in the data set with JEV RVP [3] was determined as 3.9.
`Cc1c(O)cccc1C(=O)N[C@@H](CSc1ccccc1)[C@H](O)CN1C[C@H]2CCCC[C@H]2C[C@H]1C(=O)NC(C)(C)C` [Nelfinavir Mesylate]: the CC50 in data set [1] was 27.1 µM. In addition, the “level of DENV-2 replication (replicon luciferase)” value in the data set on DENV-2 replicon is “no effect at the concentrations tested”. For the same compound, the IC50 in the data set with JEV RVP [2] was found to be 1.6 µM. Moreover, in the data set with JEV RVP [3], the selectivity ratio is 16.8.
`CC[C@@H]1/C=C(\C)C[C@H](C)C[C@H](OC)[C@H]2O[C@@](O)(C(=O)C(=O)N3CCCC[C@H]3C(=O)O[C@H](/C(C)=C/[C@@H]3CC[C@H](Cl)[C@H](OC)C3)[C@H](C)[C@@H](O)CC1=O)[C@H](C)C[C@@H]2OC` [Pimecrolimus]: the “SI (selective index, CC50/IC50)” value in the data set on JEV RVP [7] is reported as more than 32. The compound further displayed a CC50 in [1] of more than 100 µM. This compound gave a concentration for half-maximal inhibition (IC50) in the data set on JEV RVP [2] of 3.1 µM. Moreover, in the data set with JEV RVP [3], the selectivity ratio was more than 32.3.
Consider `COc1ccc(CCN(C)CCCC(C#N)(c2ccc(OC)c(OC)c2)C(C)C)cc1OC` (stereo not drawn) [Verapamil], for which the “inhibition of JEV infection (IFA, prM-positive cells vs DMSO control)” value in the data set on JEV is listed as “dose-dependent inhibition”.
Regarding `CCOC(=O)C1=C(C)NC(C)=C(C(=O)OC)C1c1cccc(Cl)c1Cl` (stereo not drawn) [felodipine], the inhibition at 10 µM in the data set on JEV RVP [2] was 72%.
Turning to `Fc1ccc(C(c2ccc(F)cc2)N2CCN(C/C=C/c3ccccc3)CC2)cc1` [flunarizine dihydrochloride], the inhibition at 10 µM in the data set with JEV RVP [2] was more than 90%.
`COc1ccc(CN2CCN(C(c3ccc(F)cc3)c3ccc(F)cc3)CC2)c(OC)c1OC.Cl.Cl` [lomerizine hydrochloride]: the “level of inhibition in the primary screen” value with JEV RVP [7] (10 μM compound) is recorded as more than 90%.
As to `COC(=O)C1=C(C)NC(C)=C(C(=O)OCCN(C)Cc2ccccc2)C1c1cccc([N+](=O)[O-])c1` (stereo not drawn) [nicardipine hydrochloride], in the data set on JEV RVP [2], the inhibition at 10 µM was determined as 66%.
Take `COC(=O)C1=C(C)NC(C)=C(C(=O)OCC(C)C)C1c1ccccc1[N+](=O)[O-]` (stereo not drawn) [nisoldipine]: the inhibition at 10 µM with JEV RVP [2] amounted to 75%.
